Assay results: patent US20260325508A1, “COMBINATION OF PAC-1 AND CAR T-CELL TREATMENTS” (THE BOARD OF TRUSTEES OF THE UNIVERSITY OF ILLINOIS, priority 2023, published 2026)

Test system: ID8Cosmc-KO
Test: Survival of ID8Cosmc-KO-bearing mice, PAC-1 and 237 CAR-T combinations
Assay type: in vivo, mouse
Settings: single agent, PAC-1 100 mg/kg i.p. from day 40, three weeks 5 days ON, 2 days OFF; untreated 71 days; p<0.0001
Protocol: FIG. 14A-B. PAC-1 enhanced efficacy of 237 CAR-T in late-stage ovarian cancer model. Survival curves of mice with established ID8Cosmc-KO tumors treated with a combination of PAC-1 and 237 CAR-T in comparison with their single-agent controls. (A) Mice with detectable tumors at day 40 post-tumor inoculation were administered with either PAC-1 (100 mg/kg) or vehicle intraperitoneally for three weeks at a “five days ON, 2 days OFF” treatment schedule. At day 60 post-tumor inoculation, mice were given either 237 CAR-T or mock T cells (5 million cells, >40% transduction efficiency) via i.p. injection. Cyclophosphamide (100 mg/kg, i.p.) were administered 24 hours prior to adoptive T cell transfer to deplete pre-existing lymphocytes. (B) Data were plotted with GraphPad Prism v10 using cumulative data across five independent experiments, with the indicated total n for each treatment arm. Median survival times are indicated; P-values were calculated using the Log-rank (Mantel-Cox) test.
FIG. 15A-B. PAC-1 at day 50 (or day 60) and 237 CAR-T at day 60 combination treatment. […] Median survival times are indicated; P-values were calculated using the Log-rank (Mantel-Cox) test. […]
FIG. 16A-B. 237 CAR-T at day 60 and PAC-1 at day 77 combination treatment. […] Median survival times are indicated; P-values were calculated using the Log-rank (Mantel-Cox) test. […]

`C=CCc1cccc(/C=N/NC(=O)CN2CCN(Cc3ccccc3)CC2)c1O` [PAC-1] was tested, and the median survival was 90 days.
